The numbers were not newly measured in US20180271890A1, “Solid Pharmaceutical Composition Comprising Amorphous Sofosbuvir” (priority 2015, published 2018), which cites them from elsewhere.

Turning to `CC(C)OC(=O)[C@H](C)N[P@](=O)(OC[C@H]1O[C@@H](n2ccc(=O)[nH]c2=O)[C@](C)(F)[C@@H]1O)Oc1ccccc1` [Amorphous sofosbuvir, (S)-isopropyl 2-(((S)-(((2R,3R,4R,5R)-5-(2,4-dioxo-3,4-dihydropyrimidin-1(2H)-yl)-4-fluoro-3-hydroxy-4-methyltetrahydrofuran-2-yl)methoxy)(phenoxy)phosphoryl)-amino)propanoate], the “relative humidity at which the substance deliquesces” value (amorphous form) is on record as “above 50%”.
Regarding `CC(C)OC(=O)[C@H](C)N[P@](=O)(OC[C@H]1O[C@@H](n2ccc(=O)[nH]c2=O)[C@](C)(F)[C@@H]1O)Oc1ccccc1` [sofosbuvir, (S)-isopropyl 2-(((S)-(((2R,3R,4R,5R)-5-(2,4-dioxo-3,4-dihydropyrimidin-1(2H)-yl)-4-fluoro-3-hydroxy-4-methyltetrahydrofuran-2-yl)methoxy)(phenoxy)phosphoryl)-amino)propanoate], the “behaviour under stress conditions” value (40 °C, relative humidity 75%) is listed as “deliquesces after a few hours”.
